Experimental findings from US12534452B2, “N-(1H-imidazol-2-yl)benzamide compound and pharmaceutical composition comprising the same as active ingredient” (KAINOS MEDICINE, INC., priority 2019, dated 2026) are described below.

A word on the IC50: it is the concentration that inhibits the measured activity by half.

IRAK4, sequence (Q9NWZ3 whole entry): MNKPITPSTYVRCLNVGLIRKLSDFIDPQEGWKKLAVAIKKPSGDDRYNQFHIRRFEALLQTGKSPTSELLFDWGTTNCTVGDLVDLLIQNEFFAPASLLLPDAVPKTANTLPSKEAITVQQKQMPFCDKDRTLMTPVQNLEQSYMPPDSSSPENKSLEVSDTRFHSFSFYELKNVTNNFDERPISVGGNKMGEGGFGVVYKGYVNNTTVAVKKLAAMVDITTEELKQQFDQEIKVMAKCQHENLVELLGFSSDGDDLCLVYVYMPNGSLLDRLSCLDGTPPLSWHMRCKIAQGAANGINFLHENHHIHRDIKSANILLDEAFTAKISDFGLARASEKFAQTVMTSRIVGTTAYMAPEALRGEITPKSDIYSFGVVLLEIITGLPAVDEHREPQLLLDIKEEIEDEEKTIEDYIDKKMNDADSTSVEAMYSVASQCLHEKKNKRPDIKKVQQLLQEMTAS

In this assay the target is IRAK4 (Homo sapiens (Human), UniProt Q9NWZ3). The experiment in a line: In vitro IRAK4 phosphorylation activity assay. In kind it is biochemical. Conditions: [γ-33P]-ATP, myelin basic protein substrate, 40 minutes at room temperature; categories. The gist of the method:
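Radiometric filter-binding assay, no compound–kinase preincubation; 8 mM MOPS pH 7.0, 0.2 mM EDTA, 10 mM Mg acetate, 0.33 mg/mL myelin basic protein substrate, [γ-33P]-ATP. Reaction 40 min at room temperature, stopped with phosphoric acid, scintillation counting; IC50 reported in categories.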
Take `CC1(C)CCCN(C(=O)CCc2cn(-c3ccccc3)c(NC(=O)c3cccc(-c4cn[nH]c4)c3)n2)C1` [Example 34, N-(4-(3-(3,3-dimethylpiperidin-1-yl)-3-oxopropyl)-1-phenyl-1H-imidazol-2-yl)-3-(1H-pyrazol-4-yl)benzamide]: the IC50 was < 50 nM.
On to `O=C(CCc1cn(-c2ccccc2)c(NC(=O)c2cncc(-c3cn[nH]c3)c2)n1)Nc1ccccc1` [Example 4, N-(4-(3-oxo-3-(phenylamino)propyl)-1-phenyl-1H-imidazol-2-yl)-5-(1H-pyrazol-4-yl)nicotinamide], for which the IC50 was > 100 nM.
As for `CN1CCCN(C(=O)CCCc2cn(-c3ccccc3)c(NC(=O)c3cccc(-c4cnn(C)c4)c3)n2)CC1` [Example 183, N-(4-(4-(4-methyl-1,4-diazepan-1-yl)-4-oxobutyl)-1-phenyl-1H-imidazol-2-yl)-3-(1-methyl-1H-pyrazol-4-yl)benzamide], the concentration for half-maximal inhibition (IC50) was < 50 nM.
For `CN(C)C1CCN(C(=O)CCCCCc2cn(-c3ccccc3)c(NC(=O)c3cccc(-c4ccc5ncsc5c4)c3)n2)CC1` [Example 287, 3-(benzo[d]thiazol-6-yl)-N-(4-(6-(4-(dimethylamino)piperidin-1-yl)-6-oxohexyl)-1-phenyl-1H-imidazol-2-yl)benzamide], the IC50 was < 50 nM.
In the case of `O=C(Nc1nc(CCCN2CCCCC2)cn1-c1ccccc1)c1cccc(-c2cn[nH]c2)c1` [Example 106, N-(1-phenyl-4-(3-(piperidin-1-yl)propyl)-1H-imidazol-2-yl)-3-(1H-pyrazol-4-yl)benzamide], the IC50 was < 50 nM.
For `Cn1cc(-c2cccc(C(=O)Nc3nc(CCCCCC(=O)NC4CC4)cn3-c3ccccc3)c2)cn1` [Example 199, N-(4-(6-(cyclopropylamino)-6-oxohexyl)-1-phenyl-1H-imidazol-2-yl)-3-(1-methyl-1H-pyrazol-4-yl)benzamide], the IC50 is < 50 nM.
For `CNC(=O)Cc1cn(-c2ccccc2)c(NC(=O)c2ccccc2)n1` [Example 50, N-(4-(2-(methylamino)-2-oxoethyl)-1-phenyl-1H-imidazol-2-yl)benzamide], the IC50 was > 100 nM.
On to `O=C(Nc1nc(CCCCCCN2CCCCC2)cn1-c1ccccc1)c1cccc(-c2ccccn2)c1` [Example 269, N-(1-phenyl-4-(6-(piperidin-1-yl)hexyl)-1H-imidazol-2-yl)-3-(pyridin-2-yl)benzamide], for which the IC50 was > 100 nM.
With `COC(=O)CCCCCc1cn(-c2ccccc2)c(NC(=O)c2cccc(-c3cn[nH]c3)c2)n1` [Example 91, methyl 6-(2-(3-(1H-pyrazol-4-yl)benzamido)-1-phenyl-1H-imidazol-4-yl)hexanoate] the figure was < 50 nM; with `O=C(CCCCCc1cn(-c2ccccc2)c(NC(=O)c2cccc(-c3ccc4scnc4c3)c2)n1)NC1CC1` [Example 290, 3-(benzo[d]thiazol-5-yl)-N-(4-(6-(cyclopropylamino)-6-oxohexyl)-1-phenyl-1H-imidazol-2-yl)benzamide], > 100 nM; with `CN1CCN(N(C)C(=O)CCCc2cn(-c3ccccc3)c(NC(=O)c3cccc(-c4cnn(C)c4)c3)n2)CC1` [Example 218, N-(4-(4-(methyl(4-methylpiperazin-1-yl)amino)-4-oxobutyl)-1-phenyl-1H-imidazol-2-yl)-3-(1-methyl-1H-pyrazol-4-yl)benzamide], < 50 nM.
For `Cn1cc(-c2cccc(C(=O)Nc3nc(CCCC(N)=O)cn3-c3ccccc3)c2)cn1` [Example 189, N-(4-(4-amino-4-oxobutyl)-1-phenyl-1H-imidazol-2-yl)-3-(1-methyl-1H-pyrazol-4-yl)benzamide], the concentration for half-maximal inhibition (IC50) was < 50 nM.
`O=C(CCc1cn(-c2ccccc2)c(NC(=O)c2cccc(-c3cn[nH]c3)c2)n1)Nn1cnnc1` [Example 21, N-(4-(3-((4H-1,2,4-triazol-4-yl)amino)-3-oxopropyl)-1-phenyl-1H-imidazol-2-yl)-3-(1H-pyrazol-4-yl)benzamide] yielded an IC50 of 50 to 100 nM.
For `O=C(CCCc1cn(-c2ccccc2)c(NC(=O)c2cccc(-c3cn[nH]c3)c2)n1)Nc1ccc(F)cc1F` [Example 66, N-(4-(4-((2,4-difluorophenyl)amino)-4-oxobutyl)-1-phenyl-1H-imidazol-2-yl)-3-(1H-pyrazol-4-yl)benzamide], the IC50 is < 50 nM.
With `CN1CCN(C(=O)CCCc2cn(-c3ccc(F)cc3)c(NC(=O)c3cccc(-c4cnn(C)c4)c3)n2)CC1` [Example 299, N-(1-(4-fluorophenyl)-4-(4-(4-methylpiperazin-1-yl)-4-oxobutyl)-1H-imidazol-2-yl)-3-(1-methyl-1H-pyrazol-4-yl)benzamide] the figure was < 50 nM; with `CN(C)CCNC(=O)CCCc1cn(-c2ccccc2)c(NC(=O)c2cccc(-c3cnn(C)c3)c2)n1` [Example 162, N-(4-(4-((2-(dimethylamino)ethyl)amino)-4-oxobutyl)-1-phenyl-1H-imidazol-2-yl)-3-(1-methyl-1H-pyrazol-4-yl)benzamide], 50 to 100 nM.
Consider `Cn1ncc(-c2cccc(C(=O)Nc3nc(CCCC(=O)NC4CC4)cn3-c3ccccc3)c2)c1F` [Example 232, N-(4-(4-(cyclopropylamino)-4-oxobutyl)-1-phenyl-1H-imidazol-2-yl)-3-(5-fluoro-1-methyl-1H-pyrazol-4-yl)benzamide], for which the IC50 was 50 to 100 nM.
In the case of `O=C(Nc1nc(CCCCCC(=O)N2CCCCCC2)cn1-c1ccccc1)c1cccc(-c2ccc3scnc3c2)c1` [Example 289, N-(4-(6-(azepan-1-yl)-6-oxohexyl)-1-phenyl-1H-imidazol-2-yl)-3-(benzo[d]thiazol-5-yl)benzamide], the IC50 was > 100 nM.
Take `Cn1cc(-c2cccc(C(=O)Nc3nc(CCCC(=O)N4CCN(S(C)(=O)=O)CC4)cn3-c3ccccc3)c2)cn1` [Example 206, 3-(1-methyl-1H-pyrazol-4-yl)-N-(4-(4-(4-(methylsulfonyl)piperazin-1-yl)-4-oxobutyl)-1-phenyl-1H-imidazol-2-yl)benzamide]: the IC50 was < 50 nM.
With `O=C(Nc1nc(CCCCCCN2CCCC2=O)cn1-c1ccccc1)c1cccc(-c2ccc3[nH]ncc3c2)c1` [Example 259, 3-(1H-indazol-5-yl)-N-(4-(6-(2-oxopyrrolidin-1-yl)hexyl)-1-phenyl-1H-imidazol-2-yl)benzamide] the figure was < 50 nM; with `C[C@@H]1CC[C@@H](C)N1C(=O)CCc1cn(-c2ccccc2)c(NC(=O)c2cccc(-c3cn[nH]c3)c2)n1` [Example 29, N-(4-(3-((2R,5R)-2,5-dimethylpyrrolidin-1-yl)-3-oxopropyl)-1-phenyl-1H-imidazol-2-yl)-3-(1H-pyrazol-4-yl)benzamide], < 50 nM; with `CC(=O)N1CCN(C(=O)CCCc2cn(-c3ccccc3)c(NC(=O)c3cccc(-c4cnn(C)c4)c3)n2)CC1` [Example 205, N-(4-(4-(4-acetylpiperazin-1-yl)-4-oxobutyl)-1-phenyl-1H-imidazol-2-yl)-3-(1-methyl-1H-pyrazol-4-yl)benzamide], < 50 nM.
Regarding `C[C@@H]1CCC[C@H](C)N1C(=O)CCc1cn(-c2ccccc2)c(NC(=O)c2cccc(-c3cn[nH]c3)c2)n1` [Example 32, N-(4-(3-((2R,6S)-2,6-dimethylpiperidin-1-yl)-3-oxopropyl)-1-phenyl-1H-imidazol-2-yl)-3-(1H-pyrazol-4-yl)benzamide], the IC50 is < 50 nM.
With `CN1CCN(C(=O)CCCc2cn(-c3ccccc3)c(NC(=O)c3cccc(-c4ccc5[nH]ncc5c4)c3)n2)CC1` [Example 247, 3-(1H-indazol-5-yl)-N-(4-(4-(4-methylpiperazin-1-yl)-4-oxobutyl)-1-phenyl-1H-imidazol-2-yl)benzamide] the figure was < 50 nM.
With `O=C(Nc1nc(CCC(=O)N2CCCC[C@H]2C(F)(F)F)cn1-c1ccccc1)c1cccc(-c2cn[nH]c2)c1` [Example 38, (S)—N-(4-(3-oxo-3-(2-(trifluoromethyl)piperidin-1-yl)propyl)-1-phenyl-1H-imidazol-2-yl)-3-(1H-pyrazol-4-yl)benzamide] the figure was < 50 nM.
Regarding `CNC(=O)Cc1cn(-c2ccccc2)c(NC(=O)c2cccc(-c3ccncc3)c2)n1` [Example 265, N-(4-(2-(methylamino)-2-oxoethyl)-1-phenyl-1H-imidazol-2-yl)-3-(pyridin-4-yl)benzamide], the IC50 was > 100 nM.
On to `CNC(=O)Cc1cn(-c2ccccc2)c(NC(=O)c2cccnc2)n1` [Example 51, N-(4-(2-(methylamino)-2-oxoethyl)-1-phenyl-1H-imidazol-2-yl)nicotinamide], for which the IC50 was > 100 nM.
With `O=C(CCCc1cn(-c2ccccc2)c(NC(=O)c2cccc(-c3ccc4cn[nH]c4c3)c2)n1)NC1CC1` [Example 250, N-(4-(4-(cyclopropylamino)-4-oxobutyl)-1-phenyl-1H-imidazol-2-yl)-3-(1H-indazol-6-yl)benzamide] the figure was < 50 nM; with `O=C(Nc1nc(CCCN2CCOCC2)cn1-c1ccccc1)c1cccc(-c2cn[nH]c2)c1` [Example 107, N-(4-(3-morpholinopropyl)-1-phenyl-1H-imidazol-2-yl)-3-(1H-pyrazol-4-yl)benzamide], < 50 nM.
As to `Cn1cc(-c2cccc(C(=O)Nc3nc(CCCC(=O)N4CCN(C5CC5)CC4)cn3-c3ccccc3)c2)cn1` [Example 149, N-(4-(4-(4-cyclopropylpiperazin-1-yl)-4-oxobutyl)-1-phenyl-1H-imidazol-2-yl)-3-(1-methyl-1H-pyrazol-4-yl)benzamide], the IC50 was < 50 nM.
In the case of `O=C(CCCc1cn(-c2ccccc2)c(NC(=O)c2cccc(-c3cn[nH]c3F)c2)n1)NC1CC1` [Example 229, N-(4-(4-(cyclopropylamino)-4-oxobutyl)-1-phenyl-1H-imidazol-2-yl)-3-(5-fluoro-1H-pyrazol-4-yl)benzamide], the IC50 was < 50 nM.
`O=C(CCCc1cn(-c2ccccc2)c(NC(=O)c2cccc(-c3cn[nH]c3)c2)n1)NC1CCC1` [Example 69, N-(4-(4-(cyclobutylamino)-4-oxobutyl)-1-phenyl-1H-imidazol-2-yl)-3-(1H-pyrazol-4-yl)benzamide]: the IC50 is < 50 nM.
